Experiment [1] addresses T1, C-C chemokine receptor type 1 (Homo sapiens, UniProt P32246).
T1 sequence (P32246 whole entry): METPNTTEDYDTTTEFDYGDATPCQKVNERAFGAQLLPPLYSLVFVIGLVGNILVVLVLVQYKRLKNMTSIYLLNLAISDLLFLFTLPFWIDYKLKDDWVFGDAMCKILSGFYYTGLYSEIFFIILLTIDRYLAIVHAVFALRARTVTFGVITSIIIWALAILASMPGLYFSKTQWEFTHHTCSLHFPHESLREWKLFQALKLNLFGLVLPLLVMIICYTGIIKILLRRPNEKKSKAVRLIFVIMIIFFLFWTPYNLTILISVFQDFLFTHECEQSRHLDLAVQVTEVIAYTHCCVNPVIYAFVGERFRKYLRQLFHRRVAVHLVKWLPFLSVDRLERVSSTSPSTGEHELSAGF
Put plainly: Inhibition of CCL3 binding to C-C chemokine receptor type 1.

Experiment [2] concerns THP-1. Put plainly: Inhibition of CCL3 induced chemotaxis in THP-1 cells. As to conditions: Homo sapiens; call rule not given here. The experiment is classed as functional, cell-based.
The test system of experiment [3] is THP-1. Nature of the experiment: Inhibition of CCL3 induced chemotaxis in THP-1 cells; Not active. It counts as functional, cell-based, Homo sapiens.
For the next experiment, the species on record is Homo sapiens. Nature of the experiment: Compound inhibits CCL3 induced CD11b up-regulation on monocytes in human whole blood. The experiment is classed as functional, organism-based.

This passage reports IC50 results from ChEMBL document CHEMBL1137971, “Potent small molecule CCR1 antagonists” (Bioorg Med Chem Lett, 2004).

Consider `CNC(=O)[C@H](CC(C)C)C[C@H](O)[C@H](Cc1ccccc1)NC(=O)c1cnccn1`, for which the IC50 in experiment [1] was greater than 32 µM; with THP-1 [2] it was greater than 25 µM.
In the same order, the values of `CC1(C)CC([C@H](C[C@H](O)[C@H](Cc2ccccc2)NC(=O)c2cnc3ccccc3n2)C(N)=O)CC(C)(C)C1` are 44.8 µM and 4.6 µM.
Taken in the same sequence, the figures for `CNC(=O)[C@H](CC(C)C)C[C@H](O)[C@H](Cc1ccccc1)NC(=O)c1nccc2ccccc12` were 0.58 µM and 2.4 µM.
In the same order, the values of `CNC(=O)[C@H](CC(C)C)C[C@H](O)[C@H](Cc1ccccc1)NC(=O)c1ccnc2ccccc12` are 18.5 µM and 4.3 µM.
With `CC(C)CC[C@H](C[C@H](O)[C@H](Cc1ccccc1)NC(=O)c1cnc2ccccc2n1)C(N)=O`, the values for the IC50 (in experiment [1]; in the experiment on THP-1 [2]) were 0.028 µM and 0.002 µM, respectively.
Taken in the same sequence, the figures for `CNC(=O)[C@H](CCC(C)C)C[C@H](O)[C@H](Cc1ccccc1)NC(=O)c1cnc2ccccc2n1` were 0.022 µM and 0.008 µM.
In the case of `CNC(=O)[C@H](CC(C)C)C[C@H](O)[C@H](Cc1ccccc1)NC(=O)c1cc2ccccc2nc1O`, the figures for the IC50 (in experiment [1]; in the experiment on THP-1 [2]) were 16.7 µM and greater than 25 µM, respectively.
Regarding `CNC(=O)[C@H](CC(C)C)C[C@H](O)[C@H](Cc1ccccc1)NC(=O)c1ccc2ccccc2c1`, the IC50 in experiment [1] was 10.3 µM; in the experiment with THP-1 [2], greater than 25 µM.
As to `NC(=O)[C@H](CC1CCCC1)C[C@H](O)[C@H](Cc1ccccc1)NC(=O)c1cnc2ccccc2n1`, the IC50 in experiment [1] was determined as 0.048 µM; with THP-1 [2], 0.012 µM.
In the same order, the values of `CNC(=O)[C@H](CC(C)C)C[C@H](O)[C@H](Cc1ccc(F)cc1)NC(=O)c1cnc2ccccc2n1` are 2.6 µM and 3 µM.
Taken in the same sequence, the figures for `CNC(=O)[C@H](CC(C)C)C[C@H](O)[C@H](Cc1ccc(O)cc1)NC(=O)c1cnc2ccccc2n1` were 0.61 µM and 1.3 µM.
As for `CNC(=O)[C@H](CC(C)C)C[C@H](O)[C@H](Cc1ccccc1)NC(=O)c1cnnc2ccccc12`, the half-inhibitory concentration (IC50) in experiment [1] was 2.57 µM; in the experiment with THP-1 [2], 1.1 µM.
Consider `CN(C)CC[C@H](C[C@H](O)[C@H](Cc1ccccc1)NC(=O)c1cnc2ccccc2n1)C(N)=O`, for which the IC50 is 55.1 µM in experiment [1] and greater than 25 µM with THP-1 [2].
Consider `CC[C@H](C)[C@H](NC(=O)c1cnc2ccccc2n1)[C@@H](O)C[C@@H](CC(C)C)C(=O)NC`, for which the figures for the IC50 (in experiment [1]; in the experiment on THP-1 [3]) were 4.2 µM and “Not Active”, respectively.
In the same order, the values of `CNC(=O)[C@H](CC(C)C)C[C@H](O)[C@H](Cc1ccccc1)NC(=O)c1cncc(Br)c1` are 0.51 µM and “Not Active”.
In the case of `CNC(=O)[C@H](CC(C)C)C[C@H](O)[C@H](Cc1ccc(OC)cc1)NC(=O)c1cnc2ccccc2n1`, the figures for the IC50 (in experiment [1]; in the experiment on THP-1 [2]) were 2.9 µM and 2 µM, respectively.
On to `CNC(=O)[C@H](CC(C)C)C[C@H](O)[C@H](Cc1ccccc1)NC(=O)c1ccc2ncccc2c1`, for which the results for the IC50 (in experiment [1]; in the experiment on THP-1 [2]) were 2.49 µM and 3.3 µM, respectively.
Taken in the same sequence, the figures for `NC(=O)[C@@H](C[C@H](O)[C@H](Cc1ccccc1)NC(=O)c1cnc2ccccc2n1)C1CCOCC1` were 3.5 µM and 12.5 µM.
With `NC(=O)[C@H](Cc1ccccc1)C[C@H](O)[C@H](Cc1ccccc1)NC(=O)c1cnc2ccccc2n1`, the results for the IC50 (in experiment [1]; in the experiment with THP-1 [2]) were 0.28 µM and 0.12 µM, respectively.
In the same order, the values of `CNC(=O)[C@H](CC(C)C)C[C@H](O)[C@H](Cc1ccccc1)NC(=O)c1cnc2ccccc2n1` are 0.064 µM and 0.064 µM.
For `CNC(=O)[C@H](CC(C)C)C[C@H](O)[C@H](CC1CCCCC1)NC(=O)c1cnc2ccccc2c1`, the values for the IC50 in the experiment with THP-1 [2] and in the experiment filed under Homo sapiens were 0.84 µM and roughly 5 µM, respectively.
As for `CNC(=O)[C@H](CC(C)C)C[C@H](O)[C@H](Cc1ccccc1)NC(=O)c1cccc2cccnc12`, the 50% inhibitory concentration (IC50) in experiment [1] is greater than 32 µM; in the experiment on THP-1 [2] it was greater than 25 µM.
In the same order, the values of `NC(=O)[C@@H](C[C@H](O)[C@H](Cc1ccccc1)NC(=O)c1cnc2ccccc2n1)C1CCCC1` are 0.026 µM and 0.028 µM.
Taken in the same sequence, the figures for `CNC(=O)[C@H](CC(C)C)C[C@H](O)[C@H](Cc1ccccc1)NC(=O)c1cncc2ccccc12` were 5.15 µM and 6.6 µM.
As to `NC(=O)[C@@H](C[C@H](O)[C@H](Cc1ccccc1)NC(=O)c1cnc2ccccc2n1)C1CCCCC1`, the results for the IC50 (in experiment [1]; with THP-1 [2]) were 0.008 µM and 0.005 µM, respectively.
`CNC(=O)[C@H](CC(C)C)C[C@H](O)[C@H](Cc1ccccc1)NC(=O)c1cnc2ccccc2c1` yielded an IC50 in the experiment with THP-1 [2] of 0.46 µM.
Turning to `CNC(=O)[C@H](CC(C)C)C[C@H](O)[C@H](Cc1ccccc1)NC(=O)c1cccnc1`, the IC50 in experiment [1] was greater than 32 µM; with THP-1 [2], greater than 25 µM.
Taken in the same sequence, the figures for `CC1CC([C@H](C[C@H](O)[C@H](Cc2ccccc2)NC(=O)c2cnc3ccccc3n2)C(N)=O)CC(C)O1` (stereo not given in full) were 0.015 µM and 0.005 µM.
With `NC(=O)[C@H](CCO)C[C@H](O)[C@H](Cc1ccccc1)NC(=O)c1cnc2ccccc2n1`, the IC50 was 4.6 µM in experiment [1] and greater than 25 µM with THP-1 [2].
Taken in the same sequence, the figures for `CC(C)CCC[C@H](C[C@H](O)[C@H](Cc1ccccc1)NC(=O)c1cnc2ccccc2n1)C(N)=O` were 0.42 µM and 0.069 µM.
For the compound `CNC(=O)[C@H](CC(C)C)C[C@H](O)[C@H](Cc1ccccc1)NC(=O)c1ccc2ccccc2n1`, the values for the IC50 (in experiment [1]; with THP-1 [2]) were 0.13 µM and 0.89 µM, respectively.
In the same order, the values of `CNC(=O)[C@H](CC(C)C)C[C@H](O)[C@H](Cc1ccc(Cl)c(Cl)c1)NC(=O)c1cnc2ccccc2n1` are 0.16 µM and 0.15 µM.
Consider `CNC(=O)[C@H](CC(C)C)C[C@H](O)[C@H](CC1CCCCC1)NC(=O)c1cnc2ccccc2n1`, for which the IC50 worked out at 0.67 µM in experiment [1] and 0.56 µM with THP-1 [2].
